Assay results reported in PubChem BioAssay (NCI).
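Five compound concentrations were applied to cells in 96-well plates for 48 hours; endpoints were derived by simple linear interpolation of the resulting dose-response curve. GI50 marks 50% less growth. TGI denotes the concentration required for complete inhibition of growth.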

How the values were obtained:
Experiment in all cases: DTP human tumour cell line panel, 48 h
[1] = test system: M19-MEL melanoma
[2] = test system: KM20L2 colon
[3] = test system: NCI-H226 lung
[4] = test system: HOP-18 NSCLC
[5] = test system: XF 498 CNS
[6] = test system: SNB-75 CNS
[7] = test system: DMS 273 small cell lung
[8] = test system: BT-549 breast
[9] = test system: DU-145 prostate
[10] = test system: 786-0 renal
[11] = test system: SR leukemia
[12] = test system: PC-3 prostate
[13] = test system: RXF 393 renal
[14] = test system: DMS 114 small cell lung

Row | SMILES | TGI [1] [µM] | TGI [2] [µM] | TGI [3] [µM] | TGI [4] [µM] | TGI [5] [µM] | TGI [6] [µM] | TGI [7] [µM] | TGI [8] [µM] | TGI [9] [µM] | TGI [10] [µM] | TGI [11] [µM] | TGI [12] [µM] | TGI [13] [µM] | TGI [14] [µM] | GI50 [8] [µM] | GI50 [9] [µM] | GI50 [11] [µM] | GI50 [12] [µM] | GI50 [13] [µM] | GI50 [6] [µM]
1 | O=C(NC(Cc1ccc(I)cc1)C(=O)O)c1ccc(Cl)cc1 (stereo not drawn) | > 100 | > 100 | > 100 | > 100 | > 100 | > 100 | > 100 | – | – | – | – | – | – | – | – | – | – | – | – | –
2 | CO/N=C(\C)c1cccc(Nc2nc3ccccc3c3occc23)c1 | – | – | 7.38 | – | – | 29.1 | – | 26.8 | 30.8 | 26.7 | 34.2 | 28.2 | 27.2 | – | – | – | – | – | – | –
3 | COc1cc([N+](=O)[O-])ccc1N1C(=O)C2c3[nH]c4ccccc4c3C3CCC(C(C)(C)C)CC3C2C1=O (stereo not drawn) | – | – | > 100 | – | – | – | – | > 100 | > 100 | – | > 100 | > 100 | – | – | – | – | – | – | – | –
4 | O=C1OC2(OC2c2ccc(Cl)cc2)c2ccccc21 (stereo not drawn) | > 100 | > 100 | > 100 | – | > 100 | > 100 | > 100 | – | – | – | > 100 | – | > 100 | > 100 | – | – | – | – | – | –
5 | CNC(C)Cc1ccccc1OC (stereo not drawn) | – | > 100 | > 100 | > 100 | > 100 | > 100 | > 100 | – | – | > 100 | – | – | > 100 | > 100 | – | – | – | – | – | –
6 | Cc1ccc([N+](=O)[O-])cc1S(=O)(=O)Nc1ccc(C2=NOC(c3ccccc3O)C2)cc1 (stereo not drawn) | – | – | > 100 | – | – | 55.2 | – | 60.3 | > 100 | > 100 | 13.4 | > 100 | 11.1 | – | – | – | – | – | – | –
7 | CCOP(=O)(OCC)C(Nc1cccc(F)c1)c1ccc(N(C)C)cc1 (stereo not drawn) | – | – | > 100 | – | – | > 100 | – | > 100 | > 100 | – | > 100 | > 100 | > 100 | – | – | – | – | – | – | –
8 | CC1C(=O)C(C)C(c2ccco2)N(N=O)C1c1ccco1 (stereo not drawn) | > 100 | > 100 | > 100 | > 100 | 50.5 | > 100 | > 100 | – | – | – | – | – | > 100 | – | – | – | – | – | – | –
9 | O=c1c2cc(S(=O)(=O)O)ccc2nc(COc2ccc(Oc3ccc(Cl)cc3Cl)cc2)n1C(=S)Nc1ccc(Cl)cc1 | – | – | 42.4 | – | – | 41.5 | – | 45.2 | 87 | 40.4 | 22.9 | > 100 | 31 | – | – | – | – | – | – | –
10 | Cc1ccc(N=NC(C2=NC(=O)CS2)c2nc3ccccc3[nH]2)cc1 (stereo not drawn) | > 100 | > 100 | > 100 | – | > 100 | > 100 | > 100 | – | – | – | > 100 | – | – | > 100 | – | – | – | – | – | –
11 | C[n+]1c2ccccc2c(CNC(CS)C(=O)O)c2ccccc21 (stereo not drawn) | 90.6 | 82 | 82.1 | > 100 | 40.3 | 47.7 | 57.3 | – | – | > 100 | 32.4 | – | 59.8 | – | – | – | – | – | – | –
12 | CCOC(=O)Nc1cc2c(c(N)n1)N=C(c1ccc3ccccc3c1)CN2 | – | – | 3.5 | – | – | – | – | > 57.8 | > 100 | 3.81 | > 100 | 24.7 | 27.4 | – | – | – | – | – | – | –
13 | CS(=O)(=O)OCCN(CCOS(C)(=O)=O)c1ccc(/C=N/Nc2ncnc3nc[nH]c23)cc1 | 51 | 58 | 51.7 | 70.7 | 38.8 | 33.6 | 35.4 | – | – | 45.5 | 46 | – | 37.9 | 26.2 | – | – | – | – | – | –
14 | Nc1nc(OCC2CCCCC2)c2[nH]cnc2n1 | – | – | 73.7 | – | – | > 81 | – | > 72.9 | > 64.3 | > 88.1 | > 59.1 | 41.2 | 57.1 | – | – | – | – | – | – | –
15 | CN(C)c1ccc(/C=c2/c3ccccc3n3c2cc(NC(=O)NCCC[N+](C)(C)C)[n+]3C)cc1 | – | – | – | – | – | – | – | > 100 | > 100 | > 100 | > 100 | > 100 | > 100 | – | – | – | – | – | – | –
16 | NCCNCCNc1ccc(NCCNCCN)c2c1C(=O)c1c(O)ccc(O)c1C2=O | – | – | > 100 | – | – | > 100 | – | > 100 | > 100 | > 100 | 23.8 | > 100 | > 100 | – | – | – | – | – | – | –
17 | CCO[C@]12CCC[C@H]1[C@@H]1C(=O)c3ccccc3C(=O)C1=C(C)O2 | – | – | – | – | – | > 100 | – | – | > 100 | > 100 | 59.1 | > 100 | 56.4 | – | – | – | – | – | – | –
18 | CC1(C=O)CCC23COC4(CCC5C6(C)CCC(OC7OCC(OC8OC(CO)C(O)C(OC9OC(CO)C(O)C(O)C9O)C8OC8OCC(O)C(O)C8O)C(O)C7OC7OC(CO)C(O)C(O)C7O)C(C)(C)C6CCC5(C)C4(C)CC2O)C3C1 (stereo not drawn) | – | – | 3.47 | – | – | 2.51 | – | 3.06 | 2.77 | 2.43 | 0.617 | 2.67 | – | – | – | – | – | – | – | –
19 | CCCCCCCN(CCCCCCC)CC(O)c1cc2ccccc2c2cc(Br)ccc12 (stereo not drawn) | – | – | – | – | – | 93.9 | – | – | 38.8 | > 100 | > 100 | > 100 | – | – | – | – | – | – | – | –
20 | COc1cc([N+](=O)[O-])ccc1NC(=O)c1cccc([N+](=O)[O-])c1O | > 100 | > 100 | > 100 | 61 | – | 70.5 | – | – | – | – | > 100 | – | – | > 100 | – | – | – | – | – | –
21 | Oc1ccc(-c2nc3cc(F)ccc3s2)cc1 | – | – | 39.7 | – | – | – | – | 60.6 | 41.3 | 92.6 | 16 | 60 | 71.9 | – | – | – | – | – | – | –
22 | c1ccc([P+](c2ccccc2)(c2ccccc2)c2ccc(-c3ccc([P+](c4ccccc4)(c4ccccc4)c4ccccc4)cc3)cc2)cc1 | – | – | 71 | – | – | – | – | > 100 | > 100 | > 100 | – | 73.9 | > 100 | – | – | – | – | – | – | –
23 | CC1(O)COCCCCOc2c(CN)cccc2NC(=O)c2nc(cnc2N)-c2ccc(cc2)S(=O)(=O)C(C)(C)C1 (stereo not drawn) | – | – | – | – | – | 1.94 | – | 2.91 | 2.04 | – | 0.391 | 2.54 | 1.87 | – | 1.45 | 0.0388 | < 0.01 | 1.18 | 0.015 | 0.17
24 | CC1CC(Br)C(=O)O1 (stereo not drawn) | – | – | – | – | – | > 100 | – | > 100 | > 100 | – | – | > 100 | > 100 | – | – | – | – | – | – | –
25 | N=C(N)SCc1cccc([N+](=O)[O-])c1 | > 100 | > 90.6 | 67.2 | 89.1 | 71.8 | 89 | > 100 | – | – | – | – | – | 61.4 | 90.7 | – | – | – | – | – | –
26 | CCc1ccc2c(c1)C(=O)c1c-2n(CCCN)c(=O)c2cc([N+](=O)[O-])ccc12 | – | – | – | – | – | – | – | 3.29 | 2.05 | – | – | – | – | – | 1.68 | 0.775 | – | – | – | –
27 | c1c2c(cc3c1OCO3)-c1cc3ccc4c(c3c[n+]1CC2)OCO4 | – | – | > 11.1 | – | – | > 8.5 | – | > 12.5 | > 12.5 | > 10.1 | > 12.5 | > 12.5 | > 12.5 | – | – | – | – | – | – | –
